From patent publication US6562978B1, “Cyclic amine compounds as CCR5 antagonists” (Takeda Chemical Industries, Ltd., priority 1999, dated 2003)
Counter-ions that a name gives are not always drawn.

These compounds were tested against T1, human CCR5 (Homo sapiens, UniProt P51681) (assay: CCR5 binding assay: inhibition of [125I]-RANTES binding to CHO/CCR5 cells). Conditions: 1.0 μM test compound, 100 pM [125I]-RANTES, room temperature 40 minutes, read-out: Inhibition Rate (%) at 1.0 μM.
T1 construct: expressed in transfected cells; whole cells in the well
Description: (1) Cloning of Human CCR5 Chemokine Receptor
Cloning of CCR5 gene was carried out by PCR (polymerase chain reaction) from human spleen cDNA. With using 0.5 ng of spleen cDNA (Toyobo, QUICK-Clone cDNA) as template, PCR was performed in DNA Thermal Cycler 480 (Perkin-Elmer) (reaction conditions: 30 cycles of 95° C. for 1 minute, 60° C. for 1 minute, and 75° C. for 5 minutes) by adding primer set, 5′-[…]-3′ (25 pmol) and 5′-[…]-3′ (25 pmol), which were designed referring to nucleotide sequence of CCR5 gene reported by Samson et al. (Biochemistry, 35(11), 3362-3367 (1996)) and by using TaKaRa EX Taq (Takara Shuzo). The resultant PCR product was subjected to agarose gel electrophoresis to collect about 1.0 kb DNA fragment, which was subjected to Original TA Cloning Kit (Funakoshi) to carry out cloning of CCR5 gene.
(2) Preparation of Plasmid for Expression of Human […]
The plasmid obtained in the above (1) was digested with restriction enzymes XbaI (Takara Shuzo) and BamHI (Takara Shuzo) and subjected to agarose gel electrophoresis to collect about 1.0 kb DNA fragment. The DNA fragment was mixed with plasmid pcDNA3.1 (Funakoshi) for expression in animal cells, said plasmid being digested with XbaI and BamHI, and they were ligated with DNA Ligation Kit Ver.2 (Takara Shuzo). The resulting plasmid was subjected to transformation of competent cell of E. coli JM109 (Takara Shuzo) to obtain plasmid pCKR5.
(3) Introduction of Plasmid for Expression of Human CCR5 into CHO-K1 Cell and Expression of said Plasmid in CHO-KY Cell
CHO-K1 cells were grown in 750 ml of tissue culture flask (Becton Dickinson) using Ham's F12 medium (Nihon Pharmaceutical) containing 10% fetal calf serum (Life Tech Oriental) and took off with 0.5 g/L trypsin-0.2 g/L EDTA (Life Tech Oriental). The cells were washed with PBS (Life Tech Oriental), centrifuged (1000 rpm, 5 minutes), and suspended in PBS. With using Gene Pulser (Bio-Rad Laboratories), DNA was introduced into the cells under the conditions shown below. That is, to the cuvette of 0.4 cm gap were added 8×10^6 cells and 10 μg of plasmid pCKR5 for expression of human CCR5, and electroporation was carried out under 0.25 kV of voltage and […] of capacitance. The cells were transferred into Ham's F12 medium (Nihon Pharmaceutical) containing 10% fetal calf serum, and cultivated for 24 hours. The cells were again took off and centrifuged, and suspended in Ham's F12 medium (Nihon Pharmaceutical) containing 10% fetal calf serum and 500 μg/ml of geneticin (Life Tech Oriental). The suspension was diluted to give 10^4 cells/ml of the suspension, which was inoculated on 96 well plate (Becton Dickinson) to give geneticin resistant cells. The resulting geneticin resistant cells were cultivated in 96 well plate (Becton Dickinson), and cells expressing CCR5 were selected from the geneticin resistant cells. That is, in assay buffer (Ham's F12 medium containing 0.5% BSA and 20 mM HEPES (Wako Pure Chemical, pH7.2) to which was added 200 pM of [^125I]-RANTES (Amersham) as ligand, binding reaction was carried out at room temperature for 40 minutes, and the buffer was washed with cooled PBS. To the buffer was added 50 μl/well of 1M NaOH, and the mixture was stirred. Radioactivity was determined with γ-counter to select CHO/CCR5 cells which specifically bind to the ligand.
(4) Evaluation of Test Compounds Based on CCR5 Antagonistic Activity
The CHO/CCR5 were inoculated on 96 well microplate (5×10^4 cells/well) and cultivated for 24 hours. The medium was removed by means of suction, and to each well was added assay buffer containing Test Compound (191) and then 100 pM of [^125I]-RANTES (Amersham) as ligand. Binding assay was carried out at room temperature for 40 minutes, and assay buffer was removed by means of suction. Each well was washed twice with cooled PBS, and 200 μl of Microscint-20 (Packard Instrument, Inc.) was added to each well.

T1 sequence (P51681 whole entry): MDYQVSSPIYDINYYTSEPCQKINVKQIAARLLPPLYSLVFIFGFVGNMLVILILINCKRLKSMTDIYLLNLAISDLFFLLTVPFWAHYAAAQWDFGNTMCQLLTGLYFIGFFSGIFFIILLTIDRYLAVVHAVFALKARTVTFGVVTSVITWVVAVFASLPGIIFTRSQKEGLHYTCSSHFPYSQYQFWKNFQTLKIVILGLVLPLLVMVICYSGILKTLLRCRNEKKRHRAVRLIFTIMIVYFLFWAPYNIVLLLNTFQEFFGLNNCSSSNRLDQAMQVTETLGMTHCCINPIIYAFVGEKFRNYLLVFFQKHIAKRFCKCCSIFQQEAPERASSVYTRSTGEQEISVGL

Row | inhibition at 1 µM | Structure (SMILES)
1 | 100% | CS(=O)(=O)N1CCC(C(=O)N(CCCN2CCC(Cc3ccc(S(=O)(=O)N4CCOCC4)cc3)CC2)c2ccc(Cl)c(Cl)c2)CC1 [Example 356, N-(3,4-Dichlorophenyl)-1-(methylsulfonyl)-N-(3-{4-[4-(4-morpholinylsulfonyl)benzyl]-1-piperidinyl}propyl)-4-piperidinecarboxamide]
2 | 90% | CC(=O)N1CCC(C(=O)N(CCCN2CCC(Nc3ccc(C#N)cc3)CC2)c2ccc(Cl)c(Cl)c2)CC1 [Example 211, 1-Acetyl-N-{3-[4-(4-cyanoanilino)-1-piperidinyl]propyl}-N-(3,4-dichlorophenyl)-4-piperidinecarboxamide]
3 | 92% | CS(=O)(=O)c1ccc(OC2CCN(CCCN(C(=O)C3CCN(S(C)(=O)=O)CC3)c3ccc(Cl)c(Cl)c3)CC2)cc1 [Example 374, N-(3,4-Dichlorophenyl)-1-(methylsulfonyl)-N-(3-{4-[4-(methylsulfonyl)phenoxy]-1-piperidinyl}propyl)-4-piperidinecarboxamide]
4 | 100% | CC(=O)N1CCC(C(=O)N(CCCN2CCC(Cc3ccc(N4CCOCC4)cc3)CC2)c2ccc(Cl)c(Cl)c2)CC1 [Example 318, 1-Acetyl-N-(3,4-dichlorophenyl)-N-{3-[4-(4-morpholinobenzyl)-1-piperidinyl]propyl}-4-piperidinecarboxamide]
5 | 97% | CC(=O)Nc1ccc(C(=O)N2CCC(C(=O)N(CCCN3CCC(Cc4ccc(F)cc4)CC3)c3ccc(Cl)c(Cl)c3)CC2)cc1 [Example 158, 1-[4-(Acetylamino)benzoyl]-N-(3,4-dichlorophenyl)-N-{3-[4-(4-fluorobenzyl)-1-piperidinyl]propyl}-4-piperidinecarboxamide Trifluoroacetate]
6 | 99% | CC(=O)N1CCC(C(=O)N(CCCN2CCC(On3nnc4ccccc43)CC2)c2cccc(Cl)c2)CC1 [Example 88, 1-Acetyl-N-(3-chlorophenyl)-N-[3-[4-(1H-benzotriazol-1-yloxy)-1-piperidinyl]propyl]-4-piperidinecarboxamide Trifluoroacetate]
7 | 100% | CC(=O)N1CCC(C(=O)N(CCCN2CCC(Cc3ccc(-n4cnnn4)cc3)CC2)c2ccc(Cl)c(Cl)c2)CC1 [Example 300, 1-Acetyl-N-(3,4-dichlorophenyl)-N-(3-{4-[4-(1H-tetrazol-1-yl)benzyl]-1-piperidinyl}propyl)-4-piperidinecarboxamide]
8 | 92% | CC(C)S(=O)(=O)N1CCC(C(=O)N(CCCN2CCC(Cc3ccc(F)cc3)CC2)c2ccc(Cl)c(Cl)c2)CC1 [Example 92, N-(3,4-Dichlorophenyl)-N-{3-[4-(4-fluorobenzyl)-1-piperidinyl]propyl}-1-(isopropylsulfonyl)-4-piperidinecarboxamide Trifluoroacetate]
9 | 95% | CS(=O)(=O)N1CCC(C(=O)N(CCCN2CCC(Cc3ccc(C(N)=O)cc3)CC2)c2ccc(Cl)c(Cl)c2)CC1 [Example 362, N-(3-{4-[4-(Aminocarbonyl)benzyl]-1-piperidinyl}propyl)-N-(3,4-dichlorophenyl)-1-(methylsulfonyl)-4-piperidinecarboxamide]
10 | 84% | CC(=O)N1CCC(C(=O)N(CCCN2CCC(C#N)(Cc3ccccc3)CC2)c2cccc(Cl)c2)CC1 [Example 291, 1-Acetyl-N-[3-(4-benzyl-4-cyano-1-piperidinyl)propyl]-N-(3-chlorophenyl)-4-piperidinecarboxamide]
11 | 99% | Cc1ccc(N(CCCN2CCC(Cc3ccc(C(N)=O)cc3)CC2)C(=O)C2CCN(S(C)(=O)=O)CC2)cc1Cl [Example 470, N-(3-{4-[4-(Aminocarbonyl)benzyl]-1-piperidinyl}propyl)-N-(3-chloro-4-methylphenyl)-1-(methylsulfonyl)-4-piperidinecarboxamide]
12 | 97% | CS(=O)(=O)N1CCC(NC(=O)N(CCCN2CCC(Cc3ccccc3)CC2)c2ccccc2)CC1 [Example 15, N-[3-(4-Benzyl-1-piperidinyl)propyl]-N′-[1-(methylsulfonyl)-4-piperidinyl]-N-phenylurea]
13 | 90% | CC(=O)N1CCC(C(=O)N(CCCN2CCC(Sc3cnccn3)CC2)c2cccc(Cl)c2)CC1 [Example 79, 1-Acetyl-N-(3-chlorophenyl)-N-[3-[4-(2-pyrazinylthio)-1-piperidinyl]propyl]-4-piperidinecarboxamide Trifluoroacetate]
14 | 87% | CC(=O)N1CCC(C(=O)N(CCCN2CCC(Cc3ccc(F)cc3)CC2)c2cccc(Cl)c2)CC1 [Example 18, 1-Acetyl-N-(3-chlorophenyl)-N-{3-[4-(4-fluorobenzyl)-1-piperidinyl]propyl}-4-piperidinecarboxamide]
15 | 98% | CCN(C1CCN(CCCN(C(=O)C2CCN(S(C)(=O)=O)CC2)c2ccc(Cl)c(Cl)c2)CC1)S(=O)(=O)c1ccc(S(C)(=O)=O)cc1 [Example 341, N-(3,4-Dichlorophenyl)-N-{3-[4-(ethyl{[4-(methylsulfonyl)phenyl]sulfonyl}amino)-1-piperidinyl]propyl}-1-(methylsulfonyl)-4-piperidinecarboxamide]
16 | 100% | CS(=O)(=O)c1ccc(S(=O)(=O)C2CCN(CCCN(C(=O)C3CCN(S(C)(=O)=O)CC3)c3ccc(Cl)c(Cl)c3)CC2)cc1 [Example 334, N-(3,4-Dichlorophenyl)-1-(methylsulfonyl)-N-[3-(4-{[4-(methylsulfonyl)phenyl]sulfonyl}-1-piperidinyl)propyl]-4-piperidinecarboxamide]
17 | 97% | CS(=O)(=O)N1CCC(C(=O)N(CCCN2CCC(Cc3ccc(N4CCOCC4)cc3)CC2)c2ccc(Cl)c(Cl)c2)CC1 [Example 292, N-(3,4-Dichlorophenyl)-1-(methylsulfonyl)-N-{3-[4-(4-morpholinobenzyl)-1-piperidinyl]propyl}-4-piperidinecarboxamide]
18 | 100% | CS(=O)(=O)N1CCC(C(=O)N(CCCN2CCC(Cc3ccc(S(N)(=O)=O)cc3)CC2)c2ccc(Cl)c(Cl)c2)CC1 [Example 244, N-(3-{4-[4-(Aminosulfonyl)benzyl]-1-piperidinyl}propyl)-N-(3,4-dichlorophenyl)-1-(methylsulfonyl)-4-piperidinecarboxamide]
19 | 99% | CC(=O)N1CCC(C(=O)N(CCCN2CCC(Cc3ccc(S(N)(=O)=O)cc3)CC2)c2ccc(Cl)c(Cl)c2)CC1 [Example 243, 1-Acetyl-N-(3-{4-[4-(aminosulfonyl)benzyl]-1-piperidinyl}propyl)-N-(3,4-dichlorophenyl)-4-piperidinecarboxamide]

What follows are compounds tested on HIV-1 Ba-L (assay: Inhibitory effect on HIV-1 infection to MAGI-CCR5 cell (blue cell count, β-galactosidase)). Conditions: Human immunodeficiency virus 1, BAL, 48 h; final concentration of Test Compound 0.032 μM; MAGI-CCR5 cells; 300PFU HIV-1 Ba-L; 37° C. for 2 days.
Format: cell-based

Row | Structure (SMILES) | inhibition at 0.032 µM
20 | CC(=O)N1CCC(C(=O)N(CCCN2CCC(Cc3ccc(F)cc3)CC2)c2ccc(Cl)c(Cl)c2)CC1 [Example 468, 1-Acetyl-N-(3,4-dichlorophenyl)-N-{3-[4-(4-fluorobenzyl)-1-piperidinyl]propyl}-4-piperidinecarboxamide Hydrochloride] | 97%
21 | CC(=O)N1CCC(C(=O)N(CCCN2CCC(Sc3nc4ccccc4s3)CC2)c2cccc(Cl)c2)CC1 [Example 469, 1-Acetyl-N-(3-chlorophenyl)-N-[3-[4-(2-benzthiazolylthio)-1-piperidinyl]propyl]-4-piperidinecarboxamide Hydrochloride] | 96%
